The target in one test is Coagulation factor X (Homo sapiens, UniProt P00742). In words: In vitro inhibitory activity against human Coagulation factor Xa.
The target in another test is Serine protease 1 (Homo sapiens, UniProt P07477). Kind of test: In vitro inhibitory activity against human trypsin.
The target of test [1] is T1, Prothrombin (Homo sapiens, UniProt P00734). In words: In vitro inhibitory activity against human Coagulation factor IIa.
The nature of test [2]: Activated partial thromboplastin times (APTT) was determined in rat plasma. It counts as functional.
Test [3] in a line: Activated partial thromboplastin times (APTT) was determined in human plasma. It counts as functional.
Test [4] deals with T1, Prothrombin. Kind of test: Ratio of human Coagulation factor IIa to that of human Coagulation factor Xa was evaluated.
Test [5] can be described thus: Activated partial thromboplastin times (APTT) was determined int human plasma. It is filed as functional.

The record followed here is ChEMBL document CHEMBL1135154, “Optimization of the beta-aminoester class of factor Xa inhibitors. Part 1: P(4) and side-chain modifications for improved in vitro potency” (Bioorg Med Chem Lett, 2002).

Chain of Serine protease 1 (P07477 whole entry): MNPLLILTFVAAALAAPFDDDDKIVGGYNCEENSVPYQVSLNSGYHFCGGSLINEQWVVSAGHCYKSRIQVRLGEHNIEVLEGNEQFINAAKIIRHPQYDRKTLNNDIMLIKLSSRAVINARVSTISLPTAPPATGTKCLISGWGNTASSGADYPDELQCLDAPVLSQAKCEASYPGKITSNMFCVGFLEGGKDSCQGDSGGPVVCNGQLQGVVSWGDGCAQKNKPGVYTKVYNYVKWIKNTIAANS
Chain of Coagulation factor X (P00742 41-179 limits assumed): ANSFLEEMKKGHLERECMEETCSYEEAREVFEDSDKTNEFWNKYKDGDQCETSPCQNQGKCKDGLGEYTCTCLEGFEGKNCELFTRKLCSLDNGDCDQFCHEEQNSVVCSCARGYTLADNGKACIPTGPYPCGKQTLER
Chain of Coagulation factor X (P00742 235-488 limits assumed): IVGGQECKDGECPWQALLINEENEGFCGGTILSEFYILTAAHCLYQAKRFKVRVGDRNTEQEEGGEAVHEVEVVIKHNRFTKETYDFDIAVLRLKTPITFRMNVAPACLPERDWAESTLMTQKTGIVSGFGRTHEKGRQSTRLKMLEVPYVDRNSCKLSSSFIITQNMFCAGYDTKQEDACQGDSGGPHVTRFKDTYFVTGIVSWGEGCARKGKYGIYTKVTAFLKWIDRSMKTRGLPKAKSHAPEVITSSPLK

As for `CCOC(=O)NCc1cccc(-c2ccc(C(=O)N[C@H](C)[C@@H](Cc3cccc(C(=N)N)c3)C(=O)OC)cc2)c1`, the Ki is above 1200 nM on Coagulation factor X, above 2900 nM on Serine protease 1 and above 4000 nM on Prothrombin [1].
As for `COC(=O)[C@@H](CNC(=O)c1ccc(-c2ccccc2)cc1)Cc1cccc(C(=N)N)c1`, the Ki was 20 nM at Coagulation factor X, 230 nM on Serine protease 1 and above 3950 nM at Prothrombin [1].
Take `COC(=O)[C@H](Cc1cccc(C(=N)N)c1)[C@@H](/C=C/c1ccccc1)NC(=O)c1ccc(-c2ccccc2)cc1`: the Ki at Coagulation factor X worked out at 9.4 nM; on Prothrombin [1], 954 nM.
For `COC(=O)[C@H](Cc1cccc(C(=N)N)c1)[C@@H](Cc1ccccc1)NC(=O)c1ccc(-c2ccccc2)cc1`, the Ki on Coagulation factor X stood at 11 nM; on Serine protease 1 it was 75 nM; on Prothrombin [1] it was 709 nM.
Turning to `COC(=O)[C@H](Cc1cccc(C(=N)N)c1)[C@@H](C)NC(=O)c1ccc(-c2cccc(C(N)=O)c2)cc1`, the results for the Ki at Serine protease 1 and on Prothrombin [1] were 90 nM and above 4000 nM, respectively.
Turning to `COC(=O)[C@H](Cc1cccc(C(=N)N)c1)[C@H](NC(=O)c1ccc(-c2cccc(CN)c2)cc1)C(C)C`, the Ki on Coagulation factor X is 8 nM; at Serine protease 1, 300 nM; at Prothrombin [1] it was above 3950 nM.
Turning to `COC(=O)[C@H](Cc1cccc(C(=N)N)c1)[C@@H](CC(C)C)NC(=O)c1ccc(-c2cccc(CN)c2)cc1`, the values for the Ki at Coagulation factor X, at Serine protease 1 and on Prothrombin [1] were 0.4 nM, 38 nM and 990 nM, respectively.
As for `COC(=O)[C@H](Cc1cccc(C(=N)N)c1)[C@@H](C)NC(=O)c1ccc(-c2ccccc2)cc1`, the values for the APTT in test [2] and in test [3] were 5.05 µM and 3.9 µM, respectively. The Ki at Coagulation factor X amounted to 5.3 nM; at Serine protease 1, 69 nM. Moreover, at Prothrombin [4], the Ki ratio (IIa/Xa) was around 3250.
Turning to `COC(=O)[C@H](Cc1cccc(C(=N)N)c1)[C@@H](CC1CCCCC1)NC(=O)c1ccc(-c2cccc(CN)c2)cc1`, the Ki on Coagulation factor X is 4 nM; at Serine protease 1 it was 36 nM; on Prothrombin [1], 650 nM.
The like results for `COC(=O)[C@H](Cc1cccc(C(=N)N)c1)[C@@H](C)NC(=O)c1ccc(-c2ccc(C(N)=O)cc2)cc1` were, in that order, 2 nM, 42 nM and above 4000 nM.
For the compound `COC(=O)[C@H](Cc1cccc(C(=N)N)c1)[C@@H](CCc1ccccc1)NC(=O)c1ccc(-c2ccccc2)cc1`, the results for the Ki on Coagulation factor X, at Serine protease 1 and at Prothrombin [1] were 21 nM, 67 nM and 810 nM, respectively.
As to `COC(=O)[C@H](Cc1cccc(C(=N)N)c1)[C@@H](C)NC(=O)c1ccc(-c2ccc(C(=O)O)cc2)cc1`, the Ki at Coagulation factor X is 69 nM; at Prothrombin [1], above 4000 nM.
For `COC(=O)[C@H](Cc1cccc(C(=N)N)c1)[C@@H](C)NC(=O)c1ccc(-c2cccc(CN(C)C)c2)cc1`, the values for the Ki at Coagulation factor X, on Serine protease 1 and at Prothrombin [1] were 1 nM, 95 nM and 2660 nM, respectively.
Regarding `COC(=O)[C@H](Cc1cccc(C(=N)N)c1)[C@@H](C)NC(=O)c1ccc(-c2cccc(CN)c2)cc1`, the APTT in test [2] worked out at 1.7 µM; in test [5], 0.33 µM. In addition, the Ki on Serine protease 1 amounted to 69 nM.
Take `CC[C@@H](NC(=O)c1ccc(-c2cccc(CN)c2)cc1)[C@@H](Cc1cccc(C(=N)N)c1)C(=O)OC`: the results for the Ki on Coagulation factor X, on Serine protease 1 and at Prothrombin [1] were 0.7 nM, 63 nM and 2100 nM, respectively.
